Data as given in ChEMBL document CHEMBL3739371, “Small molecules enhance functional O-mannosylation of Alpha-dystroglycan” (Bioorg Med Chem, 2015).
Active and inactive are the calls of the source. The calls are words filed in the database; no cut-off is given here.

What was measured:
[1] = molecular target: T1, Dystroglycan 1 (Homo sapiens) (UniProt Q14118); test: Increase of functional O-mannosylation of alpha-dystroglycan in human myoblasts after 48 hrs by immunofluorescence assay
T1 sequence (whole entry): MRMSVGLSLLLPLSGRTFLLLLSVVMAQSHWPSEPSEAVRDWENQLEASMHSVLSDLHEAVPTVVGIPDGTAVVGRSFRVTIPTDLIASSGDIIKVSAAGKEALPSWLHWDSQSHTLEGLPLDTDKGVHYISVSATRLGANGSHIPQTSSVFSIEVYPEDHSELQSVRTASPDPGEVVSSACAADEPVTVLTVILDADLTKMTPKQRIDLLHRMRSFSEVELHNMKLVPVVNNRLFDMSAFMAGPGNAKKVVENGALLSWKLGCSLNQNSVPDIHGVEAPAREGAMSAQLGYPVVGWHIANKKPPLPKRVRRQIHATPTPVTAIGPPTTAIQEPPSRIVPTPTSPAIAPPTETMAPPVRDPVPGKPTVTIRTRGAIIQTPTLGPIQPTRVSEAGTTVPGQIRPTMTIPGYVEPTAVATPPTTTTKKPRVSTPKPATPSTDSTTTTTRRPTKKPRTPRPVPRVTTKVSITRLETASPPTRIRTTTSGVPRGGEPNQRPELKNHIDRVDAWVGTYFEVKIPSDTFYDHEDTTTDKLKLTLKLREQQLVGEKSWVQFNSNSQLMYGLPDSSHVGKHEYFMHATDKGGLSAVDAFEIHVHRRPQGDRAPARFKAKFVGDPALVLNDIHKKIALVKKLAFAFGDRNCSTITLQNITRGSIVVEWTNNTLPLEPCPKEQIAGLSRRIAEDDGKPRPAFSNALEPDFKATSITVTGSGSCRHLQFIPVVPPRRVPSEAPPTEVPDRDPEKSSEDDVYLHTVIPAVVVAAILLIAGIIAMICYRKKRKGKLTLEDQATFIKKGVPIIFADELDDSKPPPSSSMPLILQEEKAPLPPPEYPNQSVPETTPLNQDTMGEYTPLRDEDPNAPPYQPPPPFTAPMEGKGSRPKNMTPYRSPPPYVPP

[2] = molecular target: T2, Dystroglycan (Cricetulus griseus) (UniProt G3H8F4); test: Increase of functional O-mannosylation of alpha-dystroglycan in Chinese hamster B421 cells after 24 hrs by fluorescence assay relative to control; assay type: cell-based
T2 sequence (whole entry): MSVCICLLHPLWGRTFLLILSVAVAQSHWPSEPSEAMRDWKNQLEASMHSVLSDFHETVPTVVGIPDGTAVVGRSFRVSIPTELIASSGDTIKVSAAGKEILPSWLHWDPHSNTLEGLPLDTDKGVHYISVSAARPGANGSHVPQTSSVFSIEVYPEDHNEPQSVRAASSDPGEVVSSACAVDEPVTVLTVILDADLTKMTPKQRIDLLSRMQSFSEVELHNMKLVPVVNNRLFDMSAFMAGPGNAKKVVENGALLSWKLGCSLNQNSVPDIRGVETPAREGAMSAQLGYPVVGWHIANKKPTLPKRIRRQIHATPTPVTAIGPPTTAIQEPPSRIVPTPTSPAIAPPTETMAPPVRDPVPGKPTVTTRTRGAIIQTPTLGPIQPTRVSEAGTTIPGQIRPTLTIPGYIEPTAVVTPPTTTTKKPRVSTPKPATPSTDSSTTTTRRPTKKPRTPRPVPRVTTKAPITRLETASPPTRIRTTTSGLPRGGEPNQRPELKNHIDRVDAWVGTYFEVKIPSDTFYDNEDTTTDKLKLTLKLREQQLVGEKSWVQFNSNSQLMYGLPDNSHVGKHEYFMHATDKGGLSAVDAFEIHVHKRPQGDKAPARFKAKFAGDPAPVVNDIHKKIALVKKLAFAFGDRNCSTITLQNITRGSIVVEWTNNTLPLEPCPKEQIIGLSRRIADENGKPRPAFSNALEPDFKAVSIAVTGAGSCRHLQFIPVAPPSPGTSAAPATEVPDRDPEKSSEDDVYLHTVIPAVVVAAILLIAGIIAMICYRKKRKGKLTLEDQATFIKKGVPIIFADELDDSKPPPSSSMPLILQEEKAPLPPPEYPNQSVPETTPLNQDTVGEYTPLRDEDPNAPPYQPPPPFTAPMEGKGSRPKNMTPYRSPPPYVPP

[3] = molecular target: T1, Dystroglycan 1 (Homo sapiens); test: Increase of functional O-mannosylation of alpha-dystroglycan in human myotubes after 48 hrs by immunofluorescence assay
[4] = molecular target: T3, Dystroglycan 1 (Mus musculus) (UniProt Q62165); test: Increase of functional O-mannosylation of alpha-dystroglycan in mouse C2C12 cells expressing myogenin after 48 hrs by immunofluorescence assay; assay type: cell-based
T3 sequence (whole entry): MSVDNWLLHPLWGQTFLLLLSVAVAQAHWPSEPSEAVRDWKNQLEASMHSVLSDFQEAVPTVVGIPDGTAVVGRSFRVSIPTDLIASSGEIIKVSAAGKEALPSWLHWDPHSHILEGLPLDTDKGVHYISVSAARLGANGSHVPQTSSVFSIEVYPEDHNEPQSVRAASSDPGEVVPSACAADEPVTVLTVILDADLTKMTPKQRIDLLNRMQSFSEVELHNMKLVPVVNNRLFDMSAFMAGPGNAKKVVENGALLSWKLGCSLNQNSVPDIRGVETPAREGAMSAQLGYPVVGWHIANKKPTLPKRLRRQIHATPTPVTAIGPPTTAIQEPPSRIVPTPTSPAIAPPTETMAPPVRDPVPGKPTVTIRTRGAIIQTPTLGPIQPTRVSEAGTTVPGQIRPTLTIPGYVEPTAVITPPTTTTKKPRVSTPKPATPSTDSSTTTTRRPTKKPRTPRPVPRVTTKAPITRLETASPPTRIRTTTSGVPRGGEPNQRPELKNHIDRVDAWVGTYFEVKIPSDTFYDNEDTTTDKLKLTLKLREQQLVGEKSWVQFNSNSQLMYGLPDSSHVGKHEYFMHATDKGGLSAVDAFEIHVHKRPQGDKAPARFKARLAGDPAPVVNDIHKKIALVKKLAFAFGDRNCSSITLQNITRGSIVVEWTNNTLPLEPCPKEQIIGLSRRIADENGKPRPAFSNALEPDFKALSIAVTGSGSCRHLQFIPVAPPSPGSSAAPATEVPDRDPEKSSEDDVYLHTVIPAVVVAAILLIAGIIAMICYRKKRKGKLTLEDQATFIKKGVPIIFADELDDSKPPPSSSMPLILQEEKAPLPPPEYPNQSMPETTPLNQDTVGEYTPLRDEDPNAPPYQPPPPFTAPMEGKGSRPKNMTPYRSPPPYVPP

[5] = molecular target: T2, Dystroglycan (Cricetulus griseus); test: Increase of functional O-mannosylation of alpha-dystroglycan in Chinese hamster Lec15.2 cells after 24 hrs by fluorescence assay
[6] = molecular target: T1, Dystroglycan 1 (Homo sapiens); test: Increase of functional O-mannosylation of alpha-dystroglycan in human myotubes expressing myogenin after 48 hrs by alpha-screen assay
[7] = molecular target: T3, Dystroglycan 1 (Mus musculus); test: Increase of functional O-mannosylation of alpha-dystroglycan in mouse C2C12 cells after 48 hrs by immunofluorescence assay; assay type: cell-based
[8] = molecular target: T2, Dystroglycan (Cricetulus griseus); test: Increase of functional O-mannosylation of alpha-dystroglycan in Chinese hamster pgsl-208 cells after 24 hrs by fluorescence assay
[9] = molecular target: T1, Dystroglycan 1 (Homo sapiens); test: Increase of functional O-mannosylation of alpha-dystroglycan in FKRP-deficient human myotubes after 24 hrs by fluorescence assay
[10] = molecular target: T3, Dystroglycan 1 (Mus musculus); test: Increase of functional O-mannosylation of alpha-dystroglycan in mouse C2C12 cells expressing LARGE after 48 hrs by alpha-screen assay; assay type: cell-based
[11] = molecular target: T2, Dystroglycan (Cricetulus griseus); test: Increase of functional O-mannosylation of alpha-dystroglycan in Chinese hamster pro5 cells expressing LARGE after 48 hrs by alpha-screen assay; assay type: cell-based

Activity [1]: inactive | fold change (FC) [2]: < 6 | Activity [3]: inactive | Activity [4]: Active | Activity [5]: inactive | Activity [6]: Active | Activity [7]: Active | Activity [8]: inactive | Activity [9]: Active | fold change (FC) [10]: 8 | EC1.5 [11]: 1.2 µM
Structure (SMILES): CCC(c1nnnn1Cc1cccs1)N1CCN(c2nc3cc(N)cc(F)c3s2)CC1 (stereo unspecified)
